Assay results: patent publication US6706663B2, “Herbicidal 3-heterocyclic substituted benzisothiazole and benzisoxazole compounds” (Wyeth, priority 2000, dated 2004)

Legend:
[1] = system: IPOHE (Ipomoea hederacea); assay: Postemergence herbicidal evaluation; type: in vivo, (L.) Jacq.; conditions: postemergence
Outline: (§1)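 Visual 0–9 injury scores versus control plants, covering stand, vigour, malformation, size, chlorosis and general appearance, taken four to five weeks post-spray and averaged over replicate tests. Plants were sprayed at roughly two weeks old and held on greenhouse benches.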

GALAP (Galium aparine) [2] = assay: Preemergence herbicidal evaluation; type: in vivo; conditions: rated 4-5 weeks after treatment
Outline: (§2)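 Visual 0-9 rating versus untreated control, taken four to five weeks post-treatment, scoring stand, vigor, malformation, size, chlorosis and overall appearance. Compound applied as aqueous acetone spray to freshly seeded soil cups, then kept under standard greenhouse care.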

[3] = system: MOOVA (Monochoria vaginalis); assay: Flooded paddy, preemergence weed control; type: in vivo, Presl.; conditions: rated 3-4 weeks after treatment, 0-9 rating scale
Outline: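 Ratings of 0-9 reflect visual comparison with a control for stand, vigor, deformity, size, chlorosis and overall look. Propagules were placed in shallow silt loam (top 0.5 cm) under a continuous 1.5–3 cm flood and grown in the greenhouse.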

ZEAMX (Corn, Field) = assay: Preemergence herbicidal evaluation; type: in vivo, Zea mays, L.; conditions: rated 4-5 weeks after treatment
ORYSAT (Rice, Tebonnet) = assay: Flooded paddy, post-transplant rice tolerance; type: in vivo, Oryza sativa, (L.) Tebonnet; conditions: flooded paddy, post-transplant rice, rated 3-4 weeks after treatment, 0-9 rating scale
Outline: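 Visual 0–9 injury rating against a control, covering stand, vigor, malformation, size, chlorosis and overall appearance. Treatment was post-transplant onto flooded containers (water 1.5–3 cm deep, silt loam) holding two ten-day-old cv. Tebonnet seedlings, maintained on greenhouse benches.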

[4] = system: ABUTH (Abutilon theophrasti); assay: Postemergence herbicidal evaluation; type: in vivo, Medic.; conditions: postemergence
Outline: as §1

SETVI (Setaria viridis) [5] = assay: Postemergence herbicidal evaluation; type: in vivo, (L.) Beau; conditions: postemergence
Outline: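 Seedlings grown about two weeks were sprayed with compound in 50/50 acetone/water containing 0.5% TWEEN 20, at about 0.0040 to 1.000 kg/ha via nozzle at 40 psi. Plants were kept under greenhouse conditions and visually rated on a 0-9 scale versus control four to five weeks after treatment; replicate tests averaged.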

SETVI (Setaria viridis) [6] = assay: Preemergence herbicidal evaluation; type: in vivo, (L.) Beau; conditions: rated 4-5 weeks after treatment
Outline: as §2

[7] = system: ECHCG (Echinochloa crus-galli); assay: Preemergence herbicidal evaluation; type: in vivo, (L.) Beau; conditions: rated 4-5 weeks after treatment
Outline: as §2

[8] = system: TRZAWR (Wheat, Winter, cv Riband); assay: Postemergence herbicidal evaluation; type: in vivo, Triticum aestivum; conditions: postemergence
Outline: as §1

[9] = system: GLXMAW (Soybean, Williams); assay: Postemergence herbicidal evaluation; type: in vivo, Glycine max, (L.) Merr. cv Williams; conditions: postemergence
Outline: as §1

[10] = system: ABUTH (Abutilon theophrasti); assay: Preemergence herbicidal evaluation; type: in vivo, Medic.; conditions: rated 4-5 weeks after treatment
[11] = system: AMBEL (Ambrosia artemisifolia); assay: Preemergence herbicidal evaluation; type: in vivo, L.; conditions: rated 4-5 weeks after treatment
Outline: as §2

[12] = system: CASOB (Cassia obtusifolia); assay: Preemergence herbicidal evaluation; type: in vivo, L.; conditions: rated 4-5 weeks after treatment
Outline: as §2

[13] = system: CHEAL (Chenopodium album); assay: Preemergence herbicidal evaluation; type: in vivo, L.; conditions: rated 4-5 weeks after treatment
Outline: as §2

GALAP (Galium aparine) [14] = assay: Postemergence herbicidal evaluation; type: in vivo; conditions: postemergence
Outline: as §1

## C=CC1COC(c2nsc3ccc(-n4c(=O)cc(C(F)(F)F)n(C)c4=O)cc23)O1 (centres unmarked) [Compound 76, 1-methyl-6-(trifluoromethyl)-3-[3-(4-vinyl-1,3-dioxolan-2-yl)-1,2-benzisothiazol-5-yl]uracil]
[1]; rate 0.0320 kg/ha
  IPOHE herbicidal rating: 7.0
[1]; rate 0.0620 kg/ha
  IPOHE herbicidal rating: 9.0
GALAP (Galium aparine) [2]; Rate 0.0620 kg/ha
  Preemergence herbicidal rating GALAP: 7.0
GALAP (Galium aparine) [2]; Rate 0.1250 kg/ha
  Preemergence herbicidal rating GALAP: 9.0
GALAP (Galium aparine) [2]; Rate 0.2500 kg/ha
  Preemergence herbicidal rating GALAP: 9.0
[3]; rate 0.0080 kg/ha
  herbicidal rating, MOOVA: 9.0
[3]; rate 0.0320 kg/ha
  herbicidal rating, MOOVA: 9.0
[3]; rate 0.1250 kg/ha
  herbicidal rating, MOOVA: 9.0
ZEAMX (Corn, Field); Rate 0.0620 kg/ha
  Preemergence herbicidal rating ZEAMX: 8.5
ZEAMX (Corn, Field); Rate 0.1250 kg/ha
  Preemergence herbicidal rating ZEAMX: 8.5
ZEAMX (Corn, Field); Rate 0.2500 kg/ha
  Preemergence herbicidal rating ZEAMX: 9.0
ORYSAT (Rice, Tebonnet); rate 0.0080 kg/ha
  herbicidal rating, ORYSAT (rice tolerance): 2.0
ORYSAT (Rice, Tebonnet); rate 0.0320 kg/ha
  herbicidal rating, ORYSAT (rice tolerance): 3.0
ORYSAT (Rice, Tebonnet); rate 0.1250 kg/ha
  herbicidal rating, ORYSAT (rice tolerance): 9.0
[4]; rate 0.0320 kg/ha
  ABUTH herbicidal rating: 9.0
[4]; rate 0.0620 kg/ha
  ABUTH herbicidal rating: 9.0
SETVI (Setaria viridis) [5]; rate 0.0320 kg/ha
  SETVI herbicidal rating: 7.0
SETVI (Setaria viridis) [5]; rate 0.0620 kg/ha
  SETVI herbicidal rating: 9.0
SETVI (Setaria viridis) [6]; Rate 0.0620 kg/ha
  Preemergence herbicidal rating SETVI: 9.0
SETVI (Setaria viridis) [6]; Rate 0.1250 kg/ha
  Preemergence herbicidal rating SETVI: 9.0
SETVI (Setaria viridis) [6]; Rate 0.2500 kg/ha
  Preemergence herbicidal rating SETVI: 9.0
[7]; Rate 0.0620 kg/ha
  Preemergence herbicidal rating ECHCG: 9.0
[7]; Rate 0.1250 kg/ha
  Preemergence herbicidal rating ECHCG: 9.0
[7]; Rate 0.2500 kg/ha
  Preemergence herbicidal rating ECHCG: 9.0
[8]; rate 0.0320 kg/ha
  TRZAWR herbicidal rating: 3.0
[8]; rate 0.0620 kg/ha
  TRZAWR herbicidal rating: 3.5
[9]; rate 0.0320 kg/ha
  GLXMAW herbicidal rating: 7.0
[9]; rate 0.0620 kg/ha
  GLXMAW herbicidal rating: 8.0
[10]; Rate 0.0620 kg/ha
  Preemergence herbicidal rating ABUTH: 9.0
[10]; Rate 0.1250 kg/ha
  Preemergence herbicidal rating ABUTH: 9.0
[10]; Rate 0.2500 kg/ha
  Preemergence herbicidal rating ABUTH: 9.0
[11]; Rate 0.0620 kg/ha
  Preemergence herbicidal rating AMBEL: 9.0
[11]; Rate 0.1250 kg/ha
  Preemergence herbicidal rating AMBEL: 9.0
[11]; Rate 0.2500 kg/ha
  Preemergence herbicidal rating AMBEL: 9.0
[12]; Rate 0.0620 kg/ha
  Preemergence herbicidal rating CASOB: 5.0
[12]; Rate 0.1250 kg/ha
  Preemergence herbicidal rating CASOB: 8.5
[12]; Rate 0.2500 kg/ha
  Preemergence herbicidal rating CASOB: 9.0
[13]; Rate 0.0620 kg/ha
  Preemergence herbicidal rating CHEAL: 9.0
[13]; Rate 0.1250 kg/ha
  Preemergence herbicidal rating CHEAL: 9.0
[13]; Rate 0.2500 kg/ha
  Preemergence herbicidal rating CHEAL: 9.0
GALAP (Galium aparine) [14]; rate 0.0320 kg/ha
  GALAP herbicidal rating: 5.0
GALAP (Galium aparine) [14]; rate 0.0620 kg/ha
  GALAP herbicidal rating: 7.0

## CCCC1COC(c2nsc3ccc(-n4c(=O)cc(C(F)(F)F)n(C)c4=O)cc23)O1 (centres unmarked) [Compound 77, 1-methyl-3-[3-(4-propyl-1,3-dioxolan-2-yl)-1,2-benzisothiazol-5-yl]-6-(trifluoromethyl)uracil]
[1]; rate 0.0320 kg/ha
  IPOHE herbicidal rating: 9.0
[1]; rate 0.0620 kg/ha
  IPOHE herbicidal rating: 9.0
GALAP (Galium aparine) [2]; Rate 0.1250 kg/ha
  Preemergence herbicidal rating GALAP: 7.0
GALAP (Galium aparine) [2]; Rate 0.2500 kg/ha
  Preemergence herbicidal rating GALAP: 9.0
[3]; rate 0.0080 kg/ha
  herbicidal rating, MOOVA: 0.0
[3]; rate 0.0320 kg/ha
  herbicidal rating, MOOVA: 9.0
[3]; rate 0.1250 kg/ha
  herbicidal rating, MOOVA: 9.0
ZEAMX (Corn, Field); Rate 0.0620 kg/ha
  Preemergence herbicidal rating ZEAMX: 7.0
ZEAMX (Corn, Field); Rate 0.1250 kg/ha
  Preemergence herbicidal rating ZEAMX: 7.5
ZEAMX (Corn, Field); Rate 0.2500 kg/ha
  Preemergence herbicidal rating ZEAMX: 8.5
ORYSAT (Rice, Tebonnet); rate 0.0080 kg/ha
  herbicidal rating, ORYSAT (rice tolerance): 0.0
ORYSAT (Rice, Tebonnet); rate 0.0320 kg/ha
  herbicidal rating, ORYSAT (rice tolerance): 3.0
ORYSAT (Rice, Tebonnet); rate 0.1250 kg/ha
  herbicidal rating, ORYSAT (rice tolerance): 7.0
[4]; rate 0.0320 kg/ha
  ABUTH herbicidal rating: 9.0
[4]; rate 0.0620 kg/ha
  ABUTH herbicidal rating: 9.0
SETVI (Setaria viridis) [5]; rate 0.0320 kg/ha
  SETVI herbicidal rating: 9.0
SETVI (Setaria viridis) [5]; rate 0.0620 kg/ha
  SETVI herbicidal rating: 5.0
SETVI (Setaria viridis) [6]; Rate 0.0620 kg/ha
  Preemergence herbicidal rating SETVI: 8.5
SETVI (Setaria viridis) [6]; Rate 0.1250 kg/ha
  Preemergence herbicidal rating SETVI: 9.0
SETVI (Setaria viridis) [6]; Rate 0.2500 kg/ha
  Preemergence herbicidal rating SETVI: 9.0
[7]; Rate 0.0620 kg/ha
  Preemergence herbicidal rating ECHCG: 8.5
[7]; Rate 0.1250 kg/ha
  Preemergence herbicidal rating ECHCG: 9.0
[7]; Rate 0.2500 kg/ha
  Preemergence herbicidal rating ECHCG: 9.0
[8]; rate 0.0320 kg/ha
  TRZAWR herbicidal rating: 2.0
[8]; rate 0.0620 kg/ha
  TRZAWR herbicidal rating: 3.5
[9]; rate 0.0320 kg/ha
  GLXMAW herbicidal rating: 7.5
[9]; rate 0.0620 kg/ha
  GLXMAW herbicidal rating: 8.5
[10]; Rate 0.0620 kg/ha
  Preemergence herbicidal rating ABUTH: 9.0
[10]; Rate 0.1250 kg/ha
  Preemergence herbicidal rating ABUTH: 9.0
[10]; Rate 0.2500 kg/ha
  Preemergence herbicidal rating ABUTH: 9.0
[11]; Rate 0.0620 kg/ha
  Preemergence herbicidal rating AMBEL: 8.5
[11]; Rate 0.1250 kg/ha
  Preemergence herbicidal rating AMBEL: 9.0
[11]; Rate 0.2500 kg/ha
  Preemergence herbicidal rating AMBEL: 9.0
[12]; Rate 0.0620 kg/ha
  Preemergence herbicidal rating CASOB: 2.5
[12]; Rate 0.1250 kg/ha
  Preemergence herbicidal rating CASOB: 4.5
[12]; Rate 0.2500 kg/ha
  Preemergence herbicidal rating CASOB: 7.5
[13]; Rate 0.0620 kg/ha
  Preemergence herbicidal rating CHEAL: 9.0
[13]; Rate 0.1250 kg/ha
  Preemergence herbicidal rating CHEAL: 9.0
[13]; Rate 0.2500 kg/ha
  Preemergence herbicidal rating CHEAL: 9.0
GALAP (Galium aparine) [14]; rate 0.0320 kg/ha
  GALAP herbicidal rating: 4.0
GALAP (Galium aparine) [14]; rate 0.0620 kg/ha
  GALAP herbicidal rating: 7.0
